We go through 18 compounds from US8742106B2 (Novartis AG, priority 2009, dated 2014).

Broadly, the Kd is the concentration at which binding is half-saturated. As a reminder, the Ki is the equilibrium dissociation constant of an inhibitor or competing ligand from its target.

Experiment [1] concerns the target T1, human orexin 1 receptors (Homo sapiens (Human), UniProt O43613). Description: Radioligand Binding Assay I ([125I]orexin A competition, cell membranes). As to conditions: read-out: binding I hOx1R Kd. The protocol:
(§1) Radioligand Binding Assay I
(§2) For crude cell membrane preparations, cells (CHO, Chinese hamster ovary or HEK, human embryonic kidney) expressing human orexin 1 or human orexin 2 receptors, were washed with HEPES (10 mM, pH 7.5), scraped off the culture plates with the same buffer, and centrifuged at 4° C. for 5 min at 2500×g. The cell pellet was either stored at −80° C. or used directly. Before the experiments, cell membranes were re-suspended in binding assay buffer (10 mM HEPES, 0.5% (w/v) bovine serum albumin, pH 7.5) by homogenisation with a Polytron homogeniser at 50 Hz for 20 s. Cell membranes were also used as made available by commercial providers.
(§3) In initial saturation experiments (to calculate Bmax), cell homogenates (150 μl) were incubated with 25-300 pM of the radioligand ([^125I]orexin A, 50 μl), 8 concentrations in triplicates in the presence or absence Orexin A (1 μM, 50 μl) to define non specific binding. Bound radioactivity was measured, and data were analysed with the program XLFIT or Graphpad Prism. Protein concentration was determined according to the Bradford/BioRad Protein Assay Kit.
(§4) In competition experiments, cell homogenates (150 μl) were incubated in assay buffer (10 mM HEPES, pH 7.5, 0.5% (w/v) bovine serum albumin, 5 mM MgCl2, 1 mM CaCl2, and tween 0.05%) for 1 h at room temperature with about 100 pM of the radioligand ([^125I]orexin A, 2100 Ci/mmole, 50 μl), and with various concentrations of compounds of the invention (50 μl) in triplicates; non-specific binding was determined in the presence of Orexin A (1 μM). Reactions were terminated by vacuum filtration, 3 washes of ice cold wash buffer (Tris-HCl pH 7.4/10 mM, with NaCl 154 mM).

The target of experiment [2] is T2, human orexin 2 receptors (Homo sapiens (Human), UniProt O43614). The description is as above. As to conditions: read-out: binding I hOx2R Kd. The method, then:
as §1, §2, §3, §4

Experiment [3] has as its target T1, human orexin 1 receptors. Description: Calcium Accumulation in Cells (FLIPR), antagonism of orexin A. The note with it: antagonism of orexin A, Cheng-Prusoff corrected; read-out: FLIPR hOx1R Ki. It counts as cell-based.
Experiment [4] deals with T2, human orexin 2 receptors. The experiment is described as above. The format is cell-based. As to conditions: antagonism of orexin A, Cheng-Prusoff corrected; read-out: FLIPR hOx2R Ki. A digest of the protocol: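 Cells expressing human orexin 2 receptor, loaded with Fluo4-AM (2 μM) plus probenecid (0.1 mM) for 1 h, then washed. Antagonism read as inhibition of the orexin A calcium fluorescence signal (FLIPR).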

In experiment [5] the target is T1, human orexin 1 receptors. The experiment can be described thus: Radioligand Binding Assay II ([3H]-SB649868 competition, cell membranes). The note with it: read-out: binding II hOx1R Kd. A digest of the protocol:
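Membranes from CHO or HEK cells expressing human orexin 1 or orexin 2 receptors incubated 1 h at room temperature with about 1 nM [3H]-SB649868 and compound (triplicates) in HEPES pH 7.5 buffer with BSA, MgCl2, CaCl2, tween. Nonspecific binding defined with 10 μM almorexant; filtration read-out, Kd reported.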

In experiment [6] the target is T2, human orexin 2 receptors. The description is as above. As to conditions: read-out: binding II hOx2R Kd. A digest of the protocol:
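Competition binding used membranes from CHO or HEK cells expressing human orexin 2 receptor, incubated 1 h at room temperature with ~1 nM [3H]-SB649868 in 10 mM HEPES pH 7.5, 0.5% BSA, 5 mM MgCl2, 1 mM CaCl2, 0.05% tween. Nonspecific binding was defined with 10 μM almorexant, and bound activity was measured after filtration.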

T2 sequence (O43614 whole entry): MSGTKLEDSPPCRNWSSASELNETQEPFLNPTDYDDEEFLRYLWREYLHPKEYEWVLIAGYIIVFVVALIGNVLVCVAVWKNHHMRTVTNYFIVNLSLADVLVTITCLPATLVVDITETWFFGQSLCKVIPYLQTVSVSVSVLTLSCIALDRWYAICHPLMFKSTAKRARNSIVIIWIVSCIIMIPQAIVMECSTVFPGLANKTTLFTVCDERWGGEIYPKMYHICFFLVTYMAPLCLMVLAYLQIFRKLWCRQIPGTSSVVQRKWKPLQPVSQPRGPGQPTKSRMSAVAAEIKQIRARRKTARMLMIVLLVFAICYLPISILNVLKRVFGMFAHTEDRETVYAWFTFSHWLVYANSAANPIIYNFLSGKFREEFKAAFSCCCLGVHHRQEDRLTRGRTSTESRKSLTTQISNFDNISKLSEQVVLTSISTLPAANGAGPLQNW
T1 sequence (O43613 whole entry): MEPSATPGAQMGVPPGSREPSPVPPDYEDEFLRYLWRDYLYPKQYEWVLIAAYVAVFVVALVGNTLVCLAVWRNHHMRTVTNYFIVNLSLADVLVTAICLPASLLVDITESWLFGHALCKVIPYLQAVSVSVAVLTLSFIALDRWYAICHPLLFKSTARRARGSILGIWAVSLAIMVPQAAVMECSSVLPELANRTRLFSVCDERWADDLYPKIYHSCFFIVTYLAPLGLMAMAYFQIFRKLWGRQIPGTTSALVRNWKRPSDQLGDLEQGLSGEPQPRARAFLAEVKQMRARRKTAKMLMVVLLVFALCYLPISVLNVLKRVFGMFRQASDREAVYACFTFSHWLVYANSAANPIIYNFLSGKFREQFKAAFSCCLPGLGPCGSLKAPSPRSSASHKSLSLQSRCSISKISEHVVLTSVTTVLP

On to `C[C@H](NC(=O)COc1cc(C(F)(F)F)c2c(-c3ccccc3)cn(C)c2n1)c1ccccc1` [Example 6.77, (S)-2-(1-methyl-3-phenyl-4-(trifluoromethyl)-1H-pyrrolo[2,3-b]pyridin-6-yloxy)-N-(1-phenylethyl)acetamide], for which the Kd in experiment [1] turned out to be 501 nM; in experiment [2], 240 nM. Moreover, the Ki in experiment [3] came out at 148 nM; in experiment [4], 59 nM.

On to `Cc1nn(C)c(C)c1C(C)NC(=O)COc1cc(C(F)(F)F)c2c(-c3ccccc3)nn(C)c2n1` (stereo not drawn) [Example 1.70, 2-(1-methyl-3-phenyl-4-(trifluoromethyl)-1H-pyrazolo[3,4-b]pyridin-6-yloxy)-N-(1-(1,3,5-trimethyl-1H-pyrazol-4-yl)ethyl)acetamide], for which the Kd in experiment [1] came out at 26 nM; in experiment [2] it was 50 nM. The Ki was 8 nM in experiment [3] and 10 nM in experiment [4].

With `COc1ccc(C(C)NC(=O)COc2cc(C(F)(F)F)c3c(-c4ccccc4)nn(C)c3n2)cn1` (stereo not drawn) [Example 1.67, N-(1-(6-methoxypyridin-3-yl)ethyl)-2-(1-methyl-3-phenyl-4-(trifluoromethyl)-1H-pyrazolo[3,4-b]pyridin-6-yloxy)acetamide], the Kd is 46 nM in experiment [1] and 20 nM in experiment [2]. In addition, the Ki in experiment [3] was determined as 27 nM; in experiment [4] it was 2 nM.

`Cc1cc(OCC(=O)N[C@@H](C)c2ccccc2)nc2c1c(-c1ccccc1)nn2C` [Example 1.13, (S)-2-(1,4-dimethyl-3-phenyl-1H-pyrazolo[3,4-b]pyridin-6-yloxy)-N-(1-phenylethyl)acetamide]: the Kd in experiment [1] was determined as 45 nM; in experiment [2] it was 143 nM. Also, the figures for the Ki in experiment [3] and in experiment [4] were 181 nM and 233 nM, respectively.

Consider `C[C@H](NC(=O)COc1cc(C(F)(F)F)c2c(-c3cccc(Br)c3)nn(C)c2n1)c1ccccc1` [Example 1.58, (S)-2-(3-(3-bromophenyl)-1-methyl-4-(trifluoromethyl)-1H-pyrazolo[3,4-b]pyridin-6-yloxy)-N-(1-phenylethyl)acetamide], for which the dissociation constant (Kd) stood at 170 nM in experiment [1] and 436 nM in experiment [2]. The Ki in experiment [3] was 77 nM; in experiment [4], 201 nM.

As to `Cc1cc(OCC(=O)NC(C)CCc2ccccc2)nc2c1c(-c1ccccc1)nn2C` (stereo not drawn) [Example 1.16, 2-(1,4-dimethyl-3-phenyl-1H-pyrazolo[3,4-b]pyridin 6-yloxy)-N-(4-phenylbutan-2-yl)acetamide], the Kd was determined as 116 nM in experiment [1] and 28 nM in experiment [2]. The values for the Ki in experiment [3] and in experiment [4] were 456 nM and 49 nM, respectively.

On to `C[C@H](NC(=O)COc1cc(C(F)(F)F)c2c(-c3ccccc3F)nn(C)c2n1)c1ccccc1` [Example 1.1, (S)-2-(3-(2-fluorophenyl)-1-methyl-4-(trifluoromethyl)-1H-pyrazolo[3,4-b]pyridin-6-yloxy)-N-(1-phenylethyl)acetamide], for which the Kd in experiment [1] was found to be 185 nM; in experiment [2] it was 79 nM. Moreover, the Ki worked out at 156 nM in experiment [3] and 30 nM in experiment [4].

`Cn1nc(-c2ccccc2F)c2c(C(F)(F)F)cc(OCC(=O)N[C@H]3CCc4ccccc43)nc21` [Example 1.60, (S)-N-(2,3-dihydro-1H-inden-1-yl)-2-(3-(2-fluorophenyl)-1-methyl-4-(trifluoromethyl)-1H-pyrazolo[3,4-b]pyridin-6-yloxy)acetamide]: the Kd in experiment [1] came out at 418 nM; in experiment [2], 144 nM. The values for the Ki in experiment [3] and in experiment [4] were 236 nM and 36 nM, respectively.

`COc1cccc(-c2nn(C)c3nc(OCC(=O)N[C@@H](C)c4ccccc4)cc(C(F)(F)F)c23)c1` [Example 1.19, (S)-2-(3-(3-methoxyphenyl)-1-methyl-4-(trifluoromethyl)-1H-pyrazolo[3,4-b]pyridin-6-yloxy)-N-(1-phenylethyl)acetamide]: the Kd in experiment [1] was 101 nM; in experiment [2], 855 nM. Also, the figures for the Ki in experiment [3] and in experiment [4] were 108 nM and 187 nM, respectively.

`CCn1nccc1C(C)NC(=O)COc1cc(C(F)(F)F)c2c(-c3ccccc3)nn(C)c2n1` (stereo not drawn) [Example 1.39, N-(1-(1-ethyl-1H-pyrazol-5-yl)ethyl)-2-(1-methyl-3-phenyl-4-(trifluoromethyl)-1H-pyrazolo[3,4-b]pyridin-6-yloxy)acetamide]: the Kd in experiment [1] is 330 nM; in experiment [2] it was 1130 nM. For the same compound, the values for the inhibition constant (Ki) in experiment [3] and in experiment [4] were 222 nM and 353 nM, respectively.

Turning to `C[C@H](NC(=O)COc1cc(C(F)(F)F)c2c(-c3cccc(F)c3)nn(C)c2n1)c1ccccc1` [Example 1.22, (S)-2-(3-(3-fluorophenyl)-1-methyl-4-(trifluoromethyl)-1H-pyrazolo[3,4-b]pyridin-6-yloxy)-N-(1-phenylethyl)acetamide], the dissociation constant Kd in experiment [1] is 88 nM; in experiment [2] it was 94 nM. The Ki came to 107 nM in experiment [3] and 50 nM in experiment [4].

As to `Cn1nc(-c2cccc(F)c2)c2c(C(F)(F)F)cc(OCC(=O)N[C@H]3CCc4ccccc43)nc21` [Example 1.61, (S)-N-(2,3-dihydro-1H-inden-1-yl)-2-(3-(3-fluorophenyl)-1-methyl-4-(trifluoromethyl)-1H-pyrazolo[3,4-b]pyridin-6-yloxy)acetamide], the figures for the Kd in experiment [1] and in experiment [2] were 204 nM and 89 nM, respectively. Further, the inhibitory constant (Ki) amounted to 117 nM in experiment [3] and 33 nM in experiment [4].

As for `COc1ccc([C@H](C)NC(=O)COc2cc(C)c3c(C4CC4)nn(C)c3n2)cc1` [Example 1.71, (S)-2-(3-cyclopropyl-1,4-dimethyl-1H-pyrazolo[3,4-b]pyridin-6-yloxy)-N-(1-(4-methoxyphenyl)ethyl)acetamide], the Kd in experiment [1] was 105 nM; in experiment [2], 63 nM. Further, the values for the Ki in experiment [3] and in experiment [4] were 145 nM and 88 nM, respectively.

As for `Cc1cccc(-c2nn(C)c3nc(OCC(=O)N[C@@H](C)c4ccccc4)cc(C(F)(F)F)c23)c1` [Example 1.24, (S)-2-(1-methyl-3-m-tolyl-4-(trifluoromethyl)-1H-pyrazolo[3,4-b]pyridin-6-yloxy)-N-(1-phenylethyl)acetamide], the Kd came out at 48 nM in experiment [1] and 153 nM in experiment [2]. The Ki worked out at 54 nM in experiment [3] and 87 nM in experiment [4].

On to `CC(Oc1cc(C(F)(F)F)c2c(-c3ccccc3)nn(C)c2n1)C(=O)N[C@@H](C)c1ccccc1` (single isomer, unassigned) [Example 1.73], for which the Kd in experiment [1] is 225 nM; in experiment [2] it was 162 nM. In addition, the Ki stood at 226 nM in experiment [3] and 91 nM in experiment [4].

As to `Cc1ccc(C(C)NC(=O)COc2cc(C(F)(F)F)c3c(-c4ccccc4)nn(C)c3n2)cn1` (stereo not drawn) [Example 1.77, 2-(1-methyl-3-phenyl-4-(trifluoromethyl)-1H-pyrazolo[3,4-b]pyridin-6-yloxy)-N-(1-(6-methylpyridin-3-yl)ethyl)acetamide], the Kd stood at 161 nM in experiment [1] and 87 nM in experiment [2]. Moreover, the Ki in experiment [3] amounted to 74 nM; in experiment [4], 21 nM.

For `COc1ccc([C@H](C)NC(=O)COc2cc(C)c3c(-c4cc(C)oc4C)nn(C)c3n2)cc1` [Example 6.31, (S)-2-(3-(2,5-dimethylfuran-3-yl)-1,4-dimethyl-1H-pyrazolo[3,4-b]pyridin-6-yloxy)-N-(1-(4-methoxyphenyl)ethyl)acetamide], the Kd in experiment [5] came to 40 nM; in experiment [6] it was 221 nM. Further, the Ki in experiment [3] was 18 nM; in experiment [4] it was 47 nM.

For `Cc1ccc2c(c1)CCC2NC(=O)COc1cc(C)c2c(C3CC3)nn(C)c2n1` (stereo not drawn) [Example 6.41, 2-(3-cyclopropyl-1,4-dimethyl-1H-pyrazolo[3,4-b]pyridin-6-yloxy)-N-(5-methyl-2,3-dihydro-1H-inden-1-yl)acetamide], the Kd in experiment [5] is 908 nM; in experiment [6], 225 nM. The values for the Ki in experiment [3] and in experiment [4] were 495 nM and 29 nM, respectively.
